Test [1] deals with Mitogen-activated protein kinase 3 (Homo sapiens, UniProt P27361).
Test [2] addresses T1, Serine/threonine-protein kinase Nek1 (Homo sapiens, UniProt Q96PY6).
T1 sequence (Q96PY6 whole entry): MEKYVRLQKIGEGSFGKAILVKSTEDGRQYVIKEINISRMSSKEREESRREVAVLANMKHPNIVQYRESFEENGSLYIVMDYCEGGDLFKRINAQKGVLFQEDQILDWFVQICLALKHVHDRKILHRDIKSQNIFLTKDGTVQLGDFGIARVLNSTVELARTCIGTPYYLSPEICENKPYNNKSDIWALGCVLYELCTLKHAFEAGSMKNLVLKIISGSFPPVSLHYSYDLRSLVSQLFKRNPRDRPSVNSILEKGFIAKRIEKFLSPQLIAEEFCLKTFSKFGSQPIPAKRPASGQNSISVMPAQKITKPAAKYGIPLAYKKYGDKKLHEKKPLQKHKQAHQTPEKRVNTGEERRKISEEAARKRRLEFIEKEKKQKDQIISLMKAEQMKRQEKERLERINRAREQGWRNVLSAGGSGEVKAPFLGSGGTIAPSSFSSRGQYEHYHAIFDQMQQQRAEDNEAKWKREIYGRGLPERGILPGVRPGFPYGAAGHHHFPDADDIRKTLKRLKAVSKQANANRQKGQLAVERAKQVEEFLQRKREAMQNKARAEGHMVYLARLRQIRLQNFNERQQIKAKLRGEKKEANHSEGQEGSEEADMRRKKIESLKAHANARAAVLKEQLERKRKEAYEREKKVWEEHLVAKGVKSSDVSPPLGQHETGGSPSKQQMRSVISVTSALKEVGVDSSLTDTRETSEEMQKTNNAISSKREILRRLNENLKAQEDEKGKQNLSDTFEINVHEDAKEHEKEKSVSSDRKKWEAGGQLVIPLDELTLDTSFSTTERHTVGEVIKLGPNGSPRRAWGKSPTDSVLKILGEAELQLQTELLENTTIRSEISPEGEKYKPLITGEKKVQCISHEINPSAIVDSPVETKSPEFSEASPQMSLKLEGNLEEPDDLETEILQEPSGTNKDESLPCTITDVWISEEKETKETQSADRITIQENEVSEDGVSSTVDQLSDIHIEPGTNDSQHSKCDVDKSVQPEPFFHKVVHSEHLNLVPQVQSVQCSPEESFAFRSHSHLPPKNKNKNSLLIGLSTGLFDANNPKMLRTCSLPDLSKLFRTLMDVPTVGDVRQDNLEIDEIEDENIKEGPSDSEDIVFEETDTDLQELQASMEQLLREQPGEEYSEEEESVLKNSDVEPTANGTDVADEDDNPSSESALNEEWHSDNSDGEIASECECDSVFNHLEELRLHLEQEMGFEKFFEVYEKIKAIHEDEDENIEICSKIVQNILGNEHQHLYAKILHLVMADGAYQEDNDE

Test [3] concerns the target T2, Cyclin-G-associated kinase (Homo sapiens, UniProt O14976).
T2 sequence (O14976 whole entry): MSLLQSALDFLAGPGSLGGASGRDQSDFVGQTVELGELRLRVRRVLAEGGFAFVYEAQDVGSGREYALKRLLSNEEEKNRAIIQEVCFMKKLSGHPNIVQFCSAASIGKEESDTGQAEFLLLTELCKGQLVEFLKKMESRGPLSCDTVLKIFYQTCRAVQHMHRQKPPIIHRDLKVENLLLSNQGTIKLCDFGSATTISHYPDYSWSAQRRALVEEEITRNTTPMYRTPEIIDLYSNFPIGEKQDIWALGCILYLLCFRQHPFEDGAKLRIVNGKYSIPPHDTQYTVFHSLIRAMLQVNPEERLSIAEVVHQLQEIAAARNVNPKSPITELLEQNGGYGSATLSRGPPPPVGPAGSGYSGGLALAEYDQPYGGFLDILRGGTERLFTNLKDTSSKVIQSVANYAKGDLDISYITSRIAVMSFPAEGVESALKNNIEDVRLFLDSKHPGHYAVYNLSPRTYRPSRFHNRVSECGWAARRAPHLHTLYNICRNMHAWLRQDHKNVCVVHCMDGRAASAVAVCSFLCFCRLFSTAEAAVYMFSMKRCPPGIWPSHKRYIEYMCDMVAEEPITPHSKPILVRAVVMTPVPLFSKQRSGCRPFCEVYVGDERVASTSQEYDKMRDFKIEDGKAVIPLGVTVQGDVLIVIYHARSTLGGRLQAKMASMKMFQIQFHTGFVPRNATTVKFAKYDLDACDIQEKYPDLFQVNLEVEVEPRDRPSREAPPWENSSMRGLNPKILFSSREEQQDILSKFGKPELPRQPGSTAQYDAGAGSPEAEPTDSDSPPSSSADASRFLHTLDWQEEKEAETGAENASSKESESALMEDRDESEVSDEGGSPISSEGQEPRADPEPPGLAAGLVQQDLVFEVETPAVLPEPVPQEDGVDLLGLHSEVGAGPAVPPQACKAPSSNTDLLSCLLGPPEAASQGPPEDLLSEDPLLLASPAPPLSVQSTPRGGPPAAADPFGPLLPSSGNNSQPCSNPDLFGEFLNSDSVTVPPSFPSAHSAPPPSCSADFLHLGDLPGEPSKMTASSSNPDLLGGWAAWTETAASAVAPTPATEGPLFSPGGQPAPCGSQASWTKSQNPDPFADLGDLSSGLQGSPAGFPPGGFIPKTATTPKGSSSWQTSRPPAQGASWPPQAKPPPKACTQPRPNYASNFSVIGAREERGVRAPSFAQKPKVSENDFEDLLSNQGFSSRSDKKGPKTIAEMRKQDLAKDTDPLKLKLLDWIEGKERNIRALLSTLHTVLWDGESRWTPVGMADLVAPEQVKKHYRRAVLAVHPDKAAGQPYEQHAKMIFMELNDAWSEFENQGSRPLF

The source made the active and inactive calls.
Note: in the data inactive means no Kd found up to 30 µM.

Chain of Mitogen-activated protein kinase 3 (P27361 whole entry): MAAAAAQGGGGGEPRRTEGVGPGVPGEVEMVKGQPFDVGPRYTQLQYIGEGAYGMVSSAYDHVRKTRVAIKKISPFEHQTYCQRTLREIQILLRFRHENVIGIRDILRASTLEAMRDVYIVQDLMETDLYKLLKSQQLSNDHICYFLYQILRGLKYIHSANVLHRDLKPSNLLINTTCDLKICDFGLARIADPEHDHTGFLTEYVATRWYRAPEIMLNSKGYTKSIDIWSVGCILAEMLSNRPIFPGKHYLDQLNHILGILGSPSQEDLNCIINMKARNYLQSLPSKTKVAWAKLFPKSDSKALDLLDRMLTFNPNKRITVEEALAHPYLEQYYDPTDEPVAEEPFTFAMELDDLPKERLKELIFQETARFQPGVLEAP

One may read the Kd as the equilibrium constant for the complex coming apart. On to `CO[C@H]1C[C@@H]2CC[C@@H](C)[C@@](O)(O2)C(=O)C(=O)N2CCCC[C@H]2C(=O)O[C@H]([C@H](C)C[C@@H]2CC[C@@H](OC(=O)C(C)(CO)CO)[C@H](OC)C2)CC(=O)[C@H](C)/C=C(\C)[C@@H](O)[C@@H](OC)C(=O)[C@H](C)C[C@H](C)/C=C/C=C/C=C/1C` [TEMSIROLIMUS], for which the Kd in test [1], in test [2] and in test [3] was > 30 µM (inactive) in each case.
Consider `COc1cc2c(Nc3ccc(Cl)c(Cl)c3F)ncnc2cc1OC[C@@H]1C[C@@H]2CN(C)C[C@@H]2C1` [TESEVATINIB], for which the Kd in test [1] is > 30 µM (inactive); in test [2], > 30 µM (inactive); in test [3], 0.615 µM (active).
On to `O=C(Cc1ccc(-c2ccc(OCCN3CCOCC3)cc2)cn1)NCc1ccccc1` [TIRBANIBULIN], for which the Kd in test [1], in test [2] and in test [3] was > 30 µM (inactive) each time.
Regarding `O=C1NC(=O)[C@@H](c2cn3c4c(cccc24)CCC3)[C@@H]1c1c[nH]c2ccccc12` [TIVANTINIB], the Kd in test [1], in test [2] and in test [3] was > 30 µM (inactive) throughout.
As to `C[C@@H](NC(=O)c1ncnc(N)c1Cl)c1ncc(C(=O)Nc2cc(C(F)(F)F)c(Cl)cn2)s1` [TOVORAFENIB], the Kd in test [1], in test [2] and in test [3] was > 30 µM (inactive) each time.
In the case of `Cc1cc(Nc2ncnc3ccc(NC4=NC(C)(C)CO4)cc23)ccc1Oc1ccn2ncnc2c1` [TUCATINIB], the Kd in test [1], in test [2] and in test [3] was > 30 µM (inactive) throughout.
In the case of `Cn1ncc(Cl)c1-c1cc(C(=O)N[C@H](CN)Cc2ccc(F)c(F)c2)oc1Cl` [UPROSERTIB], the Kd in test [1], in test [2] and in test [3] was > 30 µM (inactive) throughout.
`CC(C)c1cc(CNc2nc(Nc3cc(C4CC4)[nH]n3)cc(N3CCN(C)CC3)n2)on1` [XL-228]: the Kd in test [1], in test [2] and in test [3] was > 30 µM (inactive) throughout.
As to `C[C@@H](N)c1ccc(C(=O)Nc2ccnc3[nH]ccc23)cc1` [Y-39983], the Kd in test [1], in test [2] and in test [3] was > 30 µM (inactive) each time.
As to `CN1C/C=C/CCOc2cccc(c2)-c2ccnc(n2)Nc2cccc(c2)C1` [ZOTIRACICLIB], the Kd in test [1], in test [2] and in test [3] was > 30 µM (inactive) each time.

Values taken from ChEMBL document CHEMBL3991601, “The target landscape of clinical kinase drugs” (Science, 2017).
